# Values of other authors in publication PMC3184248 (Angewandte Chemie (International ed. in English), 2011).
# Assays:
# [1] = 1.5T, 37 °C
# [2] = 1.5T, 37 °C; remark: listed apart in the source
substance,measurement,setting,value
GdDTPA,relaxivity in buffer,[1],3.3 mM⁻¹ s⁻¹
same,relaxivity in plasma,[2],4.1 mM⁻¹ s⁻¹
